± gives the standard deviation of the averaged measurements.
Experiments:
Details in all cases: 72 h
[1] = tested on: HepG2; test: relative viability EC50 (midpoint between 100% and the lowest measured viability); higher = less toxic
[2] = tested on: Caco-2; test: as above
[3] = tested on: Vero E6; test: as above
[4] = tested on: U2OS; test: as above
[5] = tested on: Calu-3; test: as above
[6] = tested on: HepG2; test: drug sensitivity score (DSS) for viability; higher = more toxic; extreme values may be limits of the assay
[7] = tested on: Caco-2; test: as above
[8] = tested on: Vero E6; test: as above
[9] = tested on: U2OS; test: as above
[10] = tested on: Calu-3; test: as above
[11] = tested on: HepG2; test: cell viability relative to DMSO; higher = less toxic
[12] = tested on: Caco-2; test: as above
[13] = tested on: Vero E6; test: as above
[14] = tested on: U2OS; test: as above
[15] = tested on: Calu-3; test: as above

| SMILES | relative viability EC50 [1] | relative viability EC50 [2] | relative viability EC50 [3] | relative viability EC50 [4] | relative viability EC50 [5] | drug sensitivity score [6] | drug sensitivity score [7] | drug sensitivity score [8] | drug sensitivity score [9] | drug sensitivity score [10] | cell viability ([11]; 1 nM) | cell viability ([11]; 10 nM) | cell viability ([11]; 100 nM) | cell viability ([11]; 1000 nM) | cell viability ([11]; 10000 nM) | cell viability ([12]; 1 nM) | cell viability ([12]; 10 nM) | cell viability ([12]; 100 nM) | cell viability ([12]; 1000 nM) | cell viability ([12]; 10000 nM) | cell viability ([13]; 1 nM) | cell viability ([13]; 10 nM) | cell viability ([13]; 100 nM) | cell viability ([13]; 1000 nM) | cell viability ([13]; 10000 nM) | cell viability ([14]; 1 nM) | cell viability ([14]; 10 nM) | cell viability ([14]; 100 nM) | cell viability ([14]; 1000 nM) | cell viability ([14]; 10000 nM) | cell viability ([15]; 1 nM) | cell viability ([15]; 10 nM) | cell viability ([15]; 100 nM) | cell viability ([15]; 1000 nM) | cell viability ([15]; 10000 nM) |
| --- | --- | --- | --- | --- | --- | --- | --- | --- | --- | --- | --- | --- | --- | --- | --- | --- | --- | --- | --- | --- | --- | --- | --- | --- | --- | --- | --- | --- | --- | --- | --- | --- | --- | --- | --- |
| CN(C)Cc1ccc(S(=O)(=O)n2ccc(/C=C/C(=O)NO)c2)cc1 [resminostat] | 1.38 µM | 3.03 µM | 1.81 µM | 2.14 µM | 1.77 µM | 9.1 | 5.1 | 8.4 | 7.2 | 6.2 | 110% | 110% | 94% | 69.2% | 7.9% | 99.6% | 101% | 103% | 98.4% | 12.4% | 106% | 103% | 101% | 82.1% | 2% | 95.2% | 105% | 97.9% | 88.1% | 5.5% | 102% | 96.3% | 92.9% | 86.2% | 27.9% |
| CNc1nc(C)nc(N[C@H]2CCC[C@@H](C(=O)NCc3ccc(C#N)cc3C(F)(F)F)C2)n1 | > 10 µM | > 10 µM | > 10 µM | > 10 µM | > 10 µM | 0 | 0 | 0 | 0 | 0 | 99.4% | 98.7% | 103% | 94.7% | 111% | 87.8% | 102% | 91.8% | 98.6% | 95.1% | 99.3% | 96.8% | 100% | 96.8% | 108% | 97% | 100% | 97.9% | 107% | 99.9% | 93.9% | 98.1% | 97% | 93.2% | 89.4% |
| CN(C)C(=O)CCSC(SCCC(=O)O)c1cccc(/C=C/c2ccc3ccc(Cl)cc3n2)c1 (stereo not given) [MK-571] | > 10 µM | > 10 µM | > 10 µM | > 10 µM | > 10 µM | 0 | 0 | 0 | 0 | 0 | 102% | 106% | 97.7% | 108% | 95.7% | 97.8% | 92.2% | 95% | 92.6% | 95.2% | 98.4% | 93.5% | 99.6% | 99.1% | 91.5% | 102% | 101% | 97.2% | 94.3% | 101% | 101% | 97.5% | 101% | 101% | 104% |
| C[C@H](Nc1ncnc2[nH]cnc12)c1cc2ccc(F)cc2nc1-c1ccccn1 [AMG319] | > 10 µM | > 10 µM | > 10 µM | > 10 µM | > 10 µM | 0 | 0.2 ± 0.28 | 0.75 ± 0.35 | 0 | 0 | 103 ± 2.3% | 96.5 ± 11% | 115 ± 5% | 97.8 ± 6.2% | 99.3 ± 5.4% | 100 ± 4.2% | 104 ± 6.4% | 98.5 ± 1.3% | 93.4 ± 5.8% | 95 ± 13% | 98.8 ± 3.9% | 97.8 ± 0.85% | 98.5 ± 1.2% | 92.2 ± 2.3% | 83.7 ± 4.1% | 99% | 101% | 98.3% | 102% | 101% | 103 ± 0.64% | 97.2 ± 1.3% | 108 ± 8.1% | 100 ± 13% | 96.5 ± 2.5% |
| Nc1ccc(S(=O)(=O)Nc2nccs2)cc1 [sulfathiazole] | > 10 µM | > 10 µM | > 10 µM | > 10 µM | > 10 µM | 0 | 0 | 0 | 0 | 0 | 102% | 95% | 94.2% | 105% | 116% | 95.8% | 96.1% | 95.1% | 93.6% | 99% | 96.9% | 100% | 97.5% | 104% | 102% | 94.2% | 98.5% | 94.3% | 93.6% | 102% | 86.1% | 94.9% | 92.2% | 98% | 89.3% |
| CCCc1ncc(C[n+]2ccccc2C)c(N)n1 [amprolium] | > 10 µM | > 10 µM | > 10 µM | > 10 µM | > 10 µM | 0 | 0.9 | 0 | 0 | 0 | 96.4% | 103% | 89.2% | 97.1% | 92.1% | 112% | 94.9% | 88.5% | 90.5% | 99.9% | 100% | 108% | 92.8% | 112% | 102% | 101% | 97.2% | 102% | 100% | 104% | 104% | 97.2% | 99.5% | 101% | 107% |
| NNc1nncc2ccccc12 [hydralazine] | > 10 µM | > 10 µM | > 10 µM | > 10 µM | > 10 µM | 0 | 0 | 0 | 0 | 2.2 | 98.4% | 106% | 128% | 98.5% | 114% | 104% | 105% | 91.4% | 108% | 88.3% | 98.7% | 101% | 105% | 105% | 99.3% | 98.4% | 102% | 99.4% | 101% | 95.8% | 95% | 102% | 89% | 85.3% | 85% |
| OC[C@@H](O)[C@@H](O[C@@H]1O[C@H](CO)[C@H](O)[C@H](O)[C@H]1O)[C@H](O)[C@@H](O)CO [D-LACTITOL MONOHYDRATE] | > 10 µM | > 10 µM | > 10 µM | > 10 µM | > 10 µM | 0 | 0 | 0 | 0 | 0 | 94% | 105% | 96.2% | 89.2% | 97.4% | 92.3% | 92.3% | 98.6% | 103% | 97.2% | 100% | 98.6% | 95.4% | 92.8% | 99.3% | 101% | 96.9% | 95.6% | 99.8% | 103% | 106% | 94.9% | 99.6% | 96.3% | 93.5% |
| Cc1cc(SCc2sc(-c3ccc(C(F)(F)F)cc3)nc2C)ccc1OCC(=O)O | > 10 µM | > 10 µM | > 10 µM | > 10 µM | > 10 µM | 0 | 0 | 0 | 0 | 0 | 99% | 101% | 106% | 104% | 96.1% | 99.9% | 103% | 104% | 103% | 96.2% | 106% | 104% | 103% | 97.6% | 97.3% | 98.4% | 102% | 99.9% | 107% | 99% | 108% | 92.8% | 92.6% | 99.5% | 102% |
| O=C(O)CCCC[C@@H]1SC[C@@H]2NC(=O)N[C@@H]21 [biotin] | > 10 µM | > 10 µM | > 10 µM | > 10 µM | > 10 µM | 0 | 0.1 | 0 | 0 | 0 | 111% | 101% | 108% | 97.4% | 104% | 95.8% | 96.3% | 101% | 95.1% | 89.3% | 106% | 66.8% | 105% | 59.3% | 106% | 99.2% | 101% | 97.7% | 101% | 97.8% | 93.8% | 105% | 98% | 102% | 97.6% |
| COC(c1ccccc1)(c1ccccc1)[C@H](Oc1nc(C)cc(C)n1)C(=O)O [ambrisentan] | > 10 µM | > 10 µM | > 10 µM | > 10 µM | > 10 µM | 0 | 0 | 0 | 0 | 2.7 | 102% | 98.4% | 95.3% | 107% | 98.3% | 104% | 98.2% | 95.1% | 97.1% | 90.5% | 99.9% | 99.1% | 94.4% | 97.4% | 102% | 101% | 101% | 94.2% | 99.5% | 95.7% | 105% | 101% | 84.6% | 88.9% | 97% |
| CC[C@@H](C)c1ccc(NC(=O)Cn2cnc3c2c(=O)n(C)c(=O)n3C)cc1 (racemic) | > 10 µM | > 10 µM | > 10 µM | > 10 µM | > 10 µM | 0 | 0 | 0 | 0 | 0 | 95.9% | 100% | 96.6% | 100% | 93.4% | 98.5% | 90.1% | 89.8% | 97.3% | 92.5% | 96% | 98.3% | 92.6% | 94% | 106% | 98.6% | 97.1% | 98.3% | 96.9% | 98.6% | 99.4% | 100% | 98.6% | 99% | 95.6% |
| CN(C)CCC=C1c2ccccc2C=Cc2ccccc21 [cyclobenzaprine] | > 10 µM | > 10 µM | > 10 µM | > 10 µM | > 10 µM | 0 | 0 | 0 | 0 | 0 | 111% | 97.9% | 104% | 113% | 103% | 102% | 108% | 101% | 98.8% | 114% | 100% | 99.6% | 92.2% | 107% | 101% | 102% | 98.4% | 103% | 101% | 104% | 98.8% | 99.3% | 94.8% | 99% | 101% |
| C[N+](C)(C)CCCCCCCCCC[N+](C)(C)C [decamethonium] | > 10 µM | > 10 µM | > 10 µM | > 10 µM | > 10 µM | 0 | 0 | 0 | 0 | 0 | 102% | 99.2% | 96.2% | 93.2% | 104% | 98.1% | 93.1% | 99.1% | 99.9% | 97.4% | 101% | 98% | 102% | 95.7% | 99.7% | 98.3% | 99.8% | 94% | 97.3% | 95.5% | 88.3% | 114% | 95.6% | 108% | 89.3% |
| CCCCCCCCCCCCCC[C@@H](O)[C@@H](O)[C@@H](N)CO [phytosphingosine] | > 10 µM | > 10 µM | > 10 µM | > 10 µM | > 10 µM | 0 | 0 | 0 | 0 | 0 | 91% | 92.7% | 112% | 100% | 97.9% | 115% | 102% | 87.3% | 113% | 99.5% | 98.7% | 98.2% | 95.9% | 111% | 95.2% | 101% | 100% | 98.9% | 102% | 98.3% | 103% | 101% | 98.6% | 82.3% | 103% |

Reference: the supplement of paper PMC13380429
